IC50 data for 25 compounds are collected here from patent publication US9765074B2, “Inhibitors of the renal outer medullary potassium channel” (Merck Sharp & Dohme Corp., priority 2013, dated 2017).

The target in the assay is T1, hROMK (hKir1.1) (Homo sapiens, UniProt P48048).
T1 construct: expressed in transfected cells
T1 sequence (P48048 1-391): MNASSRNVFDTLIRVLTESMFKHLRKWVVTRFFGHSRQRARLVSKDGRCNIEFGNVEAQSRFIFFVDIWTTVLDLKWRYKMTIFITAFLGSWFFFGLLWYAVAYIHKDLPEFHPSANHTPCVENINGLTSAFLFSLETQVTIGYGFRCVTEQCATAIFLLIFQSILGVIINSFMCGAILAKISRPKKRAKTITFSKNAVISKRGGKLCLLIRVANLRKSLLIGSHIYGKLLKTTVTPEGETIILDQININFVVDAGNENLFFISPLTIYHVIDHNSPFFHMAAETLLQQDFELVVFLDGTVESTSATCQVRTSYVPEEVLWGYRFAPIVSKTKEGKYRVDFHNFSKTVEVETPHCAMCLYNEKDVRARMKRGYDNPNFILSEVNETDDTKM
The assay can be described thus: Thallium Flux Assay (ROMK channel functional thallium flux, FLIPR-Tetra). It is filed as cell-based. Conditions: HEK293 cells stably expressing hROMK (hKir1.1); 30 min compound incubation. How it is done:
The following Thallium Flux Assay was performed on each of the final product compounds in the Examples.
Cell Culture Conditions—HEK293 cells stably expressing hROMK (hKir1.1) were grown at 37° C. in a 10% CO2 humidified incubator in complete growth media: Dulbecco's Modified Eagle Medium supplemented with non-essential amino acids, Penicillin/Streptomycin/Glutamine, G418 and FBS. At >80% confluency, aspirate the media from the flask and rinse with 10 mL Calcium/Magnesium-free PBS. Add 5 mL of 1× trypsin (prepared in Ca/Mg Free PBS) to T-225 flask and return flask to 37° C./CO2 incubator for 2-3 minutes. To dislodge the cell, gently bang the side of the flask with your hand. Triturate the cells completely and then transfer the cells to 25 mL complete media. Centrifuge at 1,500 rpm for 6 min followed by resuspension in complete growth media and determine cell concentration. For typical re-seeding, 4E6 cells/T-225 flask will attain >80% confluency in 4 days. Under ideal growth conditions and appropriate tissue culture practices, this cell line is stable for 40-45 passages. FluxOR Kit Components (Invitrogen F10017) • FluxOR™ Reagent (Component A) • FluxOR™ Assay Buffer (Component B)—10× Concentrate • PowerLoad™ Concentrate (Component C)—100× Concentrate • Probenecid (Component D)—Lyophilized sample is kept at −20° C. Water soluble, 100× after solubilization in 1 mL water. Store at 4° C. • FluxOR™ Chloride-free Buffer (Component E)—5× Concentrate • Potassium sulfate (K2SO4) Concentrate (Component F)—125 mM in water. Store at 4° C. • Thallium sulfate (Tl2SO4) Concentrate (Component G)—50 mM in water. Store at 4° C. • DMSO (dimethyl sulfoxide, Component H)—1 mL (100%) Reagent Preparation: FluxOR Working Solutions • 1000× FluxOR™ Reagent: Reconstitute a vial of component A in 100 μl DMSO; Mix well; Store 10 μl aliquots at −20° C. • 1× FluxOR™ Assay Buffer: Dilute Component B 10-fold with water; Adjust pH to 7.4 with Hepes/NaOH; Filter and store at 4° C. • Probenecid/Assay Buffer: 100 mL of 1× FluxOR™ Assay Buffer; 1 mL of reconstituted component D; Store at 4° C. • Loading Buffer (per microplate): 10 μl 1000× FluxOR™ Reagent; 100 μl component C; 10 mL Probenecid/Assay Buffer • Compound Buffer (per microplate): 20 mL Probenecid/Assay Buffer; 0.3 mM ouabain (10 mM ouabain in water can be stored in amber bottle/aluminum foil at room temperature); Test compound • 1× FluxOR™ Chloride-Free Buffer: Prepare 1× working solution in water. Can be stored at room temperature • Stimulant Buffer (prepared at 5× final concentration in 1× FluxOR™ Chloride-Free Buffer): 7.5 mM Thallium sulfate and 0.75 mM Potassium sulfate (to give a final assay concentration of 3 mM Thallium/0.3 mM Potassium). Store at 4° C. when not in use. If kept sterile, this solution is good for months. Assay Protocol—The ROMK channel functional thallium flux assay is performed in 384 wells, using the FLIPR-Tetra instrument. HEK-hKir1.1 cells are seeded in Poly-D-Lysine microplates and kept in a 37° C.-10% CO2 incubator overnight. On the day of the experiment, the growth media is replaced with the FluxOR™ reagent loading buffer and incubated, protected from light, at ambient temperature (23-25° C.) for 90 min. The loading buffer is replaced with assay buffer±test compound followed by 30 min incubation at ambient temperature, where the Thallium/Potassium stimulant is added to the microplate. Step Protocol • 1. Seed HEK-hKir1.1 cells (50 μl at 20,000 cells/well) in 384-well PDL coated Microplates • 2. Allow cells to adhere overnight in humidified 37° C./10% CO2 incubator • 3. Completely remove cell growth media from microplate and replace with 25 μl loading buffer • 4. Incubate Microplate at room temperature, protected form light, for 90 min • 5. Remove loading buffer and replace with 25 μl 1× Assay Buffer±test compound. • 6. Incubate microplate at room temperature, protected from light, for 30 min • 7. At FLIPR-Tetra 384: Add stimulant (Thallium/Potassium) solution to microplate and monitor fluorescence. […]

As usually defined, the IC50 is the concentration that gives 50% inhibition. Lower therefore signals higher potency. `CCC1CC2(CCN(C[C@H](O)c3cnc(-n4cnnn4)cn3)CC2)C(=O)N1C1=CC(=O)OC1` (mixture of isomers) [Example 220, 3-ethyl-8-{(2S)-2-hydroxy-2-[5-(1H-tetrazol-1-yl)pyrazin-2-yl]ethyl}-2-(5-oxo-2,5-dihydrofuran-3-yl)-2,8-diazaspiro[4.5]decan-1-one]: the half-maximal inhibitory concentration (IC50) was found to be 40 nM.

For `CCC1CC2(CCN(C[C@H](O)c3cnc(-n4cnnn4)cn3)CC2)C(=O)N1C1=CC(=O)OC1` (mixture of isomers) [Example 221, 3-ethyl-8-{(2S)-2-hydroxy-2-[5-(1H-tetrazol-1-yl)pyrazin-2-yl]ethyl}-2-(5-oxo-2,5-dihydrofuran-3-yl)-2,8-diazaspiro[4.5]decan-1-one], 30 nM corresponded to half-maximal inhibition (IC50).

`O=C1C=C(N2C(=O)C3(CCN(C[C@H](O)c4ccc(-n5cnnn5)cn4)CC3)CC2C2CC2)CO1` (mixture of isomers) [Example 222, 3-cyclopropyl-8-{(2S)-2-hydroxy-2-[5-(1H-tetrazol-1-yl)pyridin-2-yl]ethyl}-2-(5-oxo-2,5-dihydrofuran-3-yl)-2,8-diazaspiro[4.5]decan-1-one] came in with an IC50 of 100 nM.

Turning to `O=C1C=C(N2C(=O)C3(CCN(C[C@H](O)c4ccc(-n5cnnn5)cn4)CC3)CC2C2CC2)CO1` (mixture of isomers) [Example 223, 3-cyclopropyl-8-{(2S)-2-hydroxy-2-[5-(1H-tetrazol-1-yl)pyridin-2-yl]ethyl}-2-(5-oxo-2,5-dihydrofuran-3-yl)-2,8-diazaspiro[4.5]decan-1-one], half-maximal inhibition (IC50) required 50 nM.

Turning to `CC1=C(N2CC[C@]3(CCN(C[C@H](O)c4cnc(-n5cnnn5)cn4)CC3F)C2=O)COC1=O` (mixture of isomers) [Example 224, 6-fluoro-8-{(2S)-2-hydroxy-2-[5-(1H-tetrazol-1-yl)pyrazin-2-yl]ethyl}-2-(4-methyl-5-oxo-2,5-dihydrofuran-3-yl)-1-oxo-2-aza-8-azoniaspiro[4.5]decane], the half-inhibitory concentration (IC50) turned out to be 110 nM.

`CC1=C(N2CC[C@@]3(CCN(C[C@H](O)c4cnc(-n5cnnn5)cn4)CC3F)C2=O)COC1=O` (mixture of isomers) [Example 225, 6-fluoro-8-{(2S)-2-hydroxy-2-[5-(1H-tetrazol-1-yl)pyrazin-2-yl]ethyl}-2-(4-methyl-5-oxo-2,5-dihydrofuran-3-yl)-1-oxo-2-aza-8-azoniaspiro[4.5]decane]: inhibition was half-maximal at 150 nM (IC50).

Consider `CC1OC(=O)C=C1N1CCC2(CCN(C[C@H](O)c3ccc(-n4cnnn4)nc3)CC2)C1=O` (mixture of isomers) [Example 226, 8-((R)-2-(6-(1H-tetrazol-1-yl)pyridin-3-yl)-2-hydroxyethyl)-2-(2-methyl-5-oxo-2,5-dihydrofuran-3-yl)-2,8-diazaspiro[4.5]decan-1-one], for which the IC50 worked out at 330 nM.

As for `CC1OC(=O)C=C1N1CCC2(CCN(C[C@H](O)c3ccc(-n4cnnn4)nc3)CC2)C1=O` (mixture of isomers) [Example 227, 8-((R)-2-(6-(1H-tetrazol-1-yl)pyridin-3-yl)-2-hydroxyethyl)-2-(2-methyl-5-oxo-2,5-dihydrofuran-3-yl)-2,8-diazaspiro[4.5]decan-1-one], the IC50 amounted to 180 nM.

The compound `CC1=C(N2C(=O)C3(CCN(CCc4ccc(-n5cnnn5)nn4)CC3)CC2C)COC1=O` (racemic) [Example 240, 3-methyl-2-(4-methyl-5-oxo-2,5-dihydrofuran-3-yl)-1-oxo-8-{2-[6-(1H-tetrazol-1-yl)pyridazin-3-yl]ethyl}-2-aza-8-azoniaspiro[4.5]decane] displayed a 50% inhibitory concentration (IC50) of 30 nM.

`CC1=C(N2C(=O)C3(CCN(CCc4ccc(-n5cnnn5)nn4)CC3)CC2C)COC1=O` (racemic) [Example 241, 3-methyl-2-(4-methyl-5-oxo-2,5-dihydrofuran-3-yl)-1-oxo-8-{2-[6-(1H-tetrazol-1-yl)pyridazin-3-yl]ethyl}-2-aza-8-azoniaspiro[4.5]decane] registered an IC50 of 20 nM.

`O=C1C=C(N2CCC3(CCN(C[C@@H](O)c4ccc(-n5cnnn5)nc4)CC3)C2=O)CO1` (single isomer, unassigned) [Example 2] displayed a 50% inhibitory concentration (IC50) of 50 nM.

Regarding `CC1=C(N2C(=O)C3(CCN(C[C@@H](O)c4ccc(-n5cnnn5)nc4)CC3)CC2C)COC1=O` (single isomer, unassigned) [Example 63], the IC50 came out at 40 nM.

The compound `CC1=C(N2C(=O)C3(CCN(C[C@@H](O)c4ccc(-n5cnnn5)nc4)CC3)CC2C)COC1=O` (single isomer, unassigned) [Example 64] displayed a half-maximal inhibitory concentration (IC50) of 50 nM.

Regarding `CC1=C(N2C(=O)C3(CCN(C[C@H](O)c4ccc(-n5cnnn5)nc4)CC3)CC2C)COC1=O` (single isomer, unassigned) [Example 65], the half-inhibitory concentration (IC50) turned out to be 10 nM.

The compound `CC1=C(N2C(=O)C3(CCN(C[C@H](O)c4ccc(-n5cnnn5)nc4)CC3)CC2C)COC1=O` (single isomer, unassigned) [Example 66] displayed a half-maximal inhibitory concentration (IC50) of 10 nM.

`CC1=C(N2C(=O)C3(CCN(C[C@H](O)c4cnc(-n5cnnn5)cn4)CC3)CC2C)COC1=O` (single isomer, unassigned) [Example 67]: the IC50 was 170 nM.

`CC1=C(N2C(=O)C3(CCN(C[C@@H](O)c4cnc(-n5cnnn5)cn4)CC3)CC2C)COC1=O` (single isomer, unassigned) [Example 68] gave a concentration for half-maximal inhibition (IC50) of 230 nM.

As to `CC1CC2(CC3CCC(C2)N3C[C@H](O)c2cnc(-n3cnnn3)cn2)C(=O)N1C1=CC(=O)OC1` (single isomer, unassigned) [Example 89], the half-inhibitory concentration (IC50) came to 30 nM.

For the compound `CC1CC2(CC3CCC(C2)N3C[C@@H](O)c2cnc(-n3cnnn3)cn2)C(=O)N1C1=CC(=O)OC1` (single isomer, unassigned) [Example 90], the half-inhibitory concentration (IC50) amounted to 40 nM.

The compound `CC1CC2(CC3CCC(C2)N3C[C@H](O)c2cnc(-n3cnnn3)cn2)C(=O)N1C1=CC(=O)OC1` (single isomer, unassigned) [Example 91] returned an IC50 of 30 nM.

On to `CC1CC2(CC3CCC(C2)N3C[C@@H](O)c2cnc(-n3cnnn3)cn2)C(=O)N1C1=CC(=O)OC1` (single isomer, unassigned) [Example 92], for which the concentration for half-maximal inhibition (IC50) was 20 nM.

In turn, `CC1CC2(CC3CCC(C2)N3C[C@H](O)c2ccc(-n3cnnn3)nc2)C(=O)N1C1=CC(=O)OC1` (single isomer, unassigned) [Example 100] gave a 50% inhibitory concentration (IC50) of 10 nM.

Consider `CC1CC2(CC3CCC(C2)N3C[C@@H](O)c2ccc(-n3cnnn3)nc2)C(=O)N1C1=CC(=O)OC1` (single isomer, unassigned) [Example 101], for which the IC50 came to 6 nM.

Turning to `CC1CC2(CC3CCC(C2)N3C[C@H](O)c2ccc(-n3cnnn3)nc2)C(=O)N1C1=CC(=O)OC1` (single isomer, unassigned) [Example 102], half-maximal inhibition (IC50) required 10 nM.

Compound `CC1CC2(CC3CCC(C2)N3C[C@@H](O)c2ccc(-n3cnnn3)nc2)C(=O)N1C1=CC(=O)OC1` (single isomer, unassigned) [Example 103] came in with an IC50 of 10 nM.
